Results from PMC5526551, “New hydrazonoindolin-2-ones: Synthesis, exploration of the possible anti-proliferative mechanism of action and encapsulation into PLGA microspheres” (PLoS ONE, 2017).
Where two headings read alike, the source gives them in different places.

Tests used:
IEC-6 = assay: Selectivity: growth inhibition in non-tumorigenic cell line; format: cell-based; conditions: Rattus norvegicus, 72 h, maximum 25 μM, read-out: IC50 Intestine IEC-6
Description: (§1) This assessment of the growth inhibitory activity of the compounds was tested in quadruplicate at a maximum concentration of 25 μM, followed by 10 serially diluted concentrations.
(§2) A549, IEC-6, MCF-10A and 3t3 cells were harvested from 90-95% confluent cultures in 10 cm dishes, and diluted in growth media recommended by the suppliers as follows: A549 cells were cultured in RPMI-1640 medium supplemented with 5% fetal bovine serum (FBS). IEC-6 cells were obtained from ATCC and cultured in Dulbecco’s modified Eagle’s medium (DMEM) supplemented with 10% FBS and 0.1 unit/mL recombinant insulin. Swiss 3t3 cells were obtained from ATCC and cultured in DMEM supplemented with 10% FBS. […]
(§3) At the end of the treatment period, assay plates were allowed to cool to RT for 10 min prior to addition of 25 µL per well Promega CellTiterGlo reagent, followed by an additional 10 min incubation at RT. The resulting luminescence was quantitated using a Molecular Devices Spectramax Paradigm.Percent growth inhibition was calculated using equation (1). The potency of compounds was determined using the non-linear dose response algorithm (four-parameter logistic fit) with GraphPad Prism 5 software.

A549 = assay: Growth inhibition in NSCLC comparison line (selectivity and multidrug resistance studies); format: cell-based, human; conditions: maximum 25 μM, read-out: IC50 NSCLC A-549 (sensitive)
Description: as §1
Compound 7e was analyzed for cancer cell growth inhibitory activity in a sensitive NSCLC cell line (A549) and a multidrug resistant lung cancer cell line (NCI-H69AR) which expresses the ABCC1 efflux pump protein. This assessment of activity tested compounds in quadruplicate at a maximum concentration of 25 μM, followed by 10 serially diluted concentrations.
(§4) A549, IEC-6, MCF-10A and 3t3 cells were harvested from 90-95% confluent cultures in 10 cm dishes, and diluted in growth media recommended by the suppliers as follows: A549 cells were cultured in RPMI-1640 medium supplemented with 5% fetal bovine serum (FBS). IEC-6 cells were obtained from ATCC and cultured in Dulbecco’s modified Eagle’s medium (DMEM) supplemented with 10% FBS and 0.1 unit/mL recombinant insulin. Swiss 3t3 cells were obtained from ATCC and cultured in DMEM supplemented with 10% FBS. MCF-10Acells were obtained from ATCC and cultured in a mixture DMEM and F12 media supplemented with 5% fetal bovine serum (FBS), 20 ng/mL recombinant epidermal growth factor, 10 µg/mL insulin, 0.5 µg/mL hydrocortisone and 100 ng/mL cholera toxin. An appropriate concentration of cells was prepared to add 1,250 cells in a volume of 25 µL per well in tissue culture treated BD 384-well microplates, then incubated overnight at 37 °C.
Compound 7e and the positive control, sunitinib, were diluted to a concentration of […] in DMSO. Concentrated dosing solutions (double the final concentration) were prepared by dilution of the DMSO stocks 1:500 in growth medium. Two-fold serial dilutions were then prepared in medium containing 0.2% DMSO to maintain a constant concentration of vehicle throughout the concentration range of the compound. Each of these was added in equal volume (25 µL) to four wells on each cell assay plate, along with vehicle control. The highest concentration for serial dilutions of the positive control sunitinib was prepared exactly as the experimental compounds. […]
as §3, with “software. […]” for “software.”
Compound 7e was diluted to a concentration of 25 µM in DMSO. […] The resulting luminescence was quantitated using a Molecular Devices Spectramax Paradigm. […]

Swiss 3t3 fibroblasts = assay: Selectivity: growth inhibition in non-tumorigenic cell line; format: cell-based, mice; conditions: Mus musculus, 72 h, maximum 25 μM, read-out: IC50 Fibroblast Swiss 3t3
Description: as §1, §2, §3

MCF-10A = assay: as above; format: cell-based, human; conditions: 72 h, maximum 25 μM, read-out: IC50 Breast MCF-10A
Description: as §1, §4
Compound 7e and the positive control, sunitinib, were diluted to a concentration of 25 µM in DMSO. Concentrated dosing solutions (double the final concentration) were prepared by dilution of the DMSO stocks 1:500 in growth medium. Two-fold serial dilutions were then prepared in medium containing 0.2% DMSO to maintain a constant concentration of vehicle throughout the concentration range of the compound. […]
as §3

[1] = tested on: IEC-6, MCF-10A, Swiss 3t3 versus A-549; assay: Tumor cell selectivity, non-tumor cell lines versus NSCLC cells; format: cell-based; conditions: for Mean tumor selectivity: mean IC50 in non-tumor cell lines versus NSCLC cells
Description: as §1
As indicated in Fig 7 and Table 4, compound 7e inhibited growth in both normal and tumor cell lines >50%.

O=C1Nc2ccc(Br)cc2C1=NN=C1C(=O)N(Cc2ccccc2)c2ccccc21 [Compound 7e, 1-Benzyl-3-((5-bromo-2-oxoindolin-3-ylidene)hydrazono)indolin-2-one]
IC50 (IEC-6): 3.72 µM
IC50 (A549; 72 h): 1.6 µM
IC50 (A549; Homo sapiens, A549, 72 h): 1.56 µM
IC50 (Swiss 3t3 fibroblasts): 2.56 µM
IC50 (MCF-10A): 1.75 µM
IC50 (MCF-10A; Homo sapiens, MCF-10A): 1.76 µM
Mean tumor selectivity [1]: 1.7
Growth inhibition in both normal and tumor cell lines ([1]; up to 25 μM): > 50%

CCN(CC)CCNC(=O)c1c(C)[nH]c(/C=C2\C(=O)Nc3ccc(F)cc32)c1C [Sunitinib, sunitinib, reference compound]
IC50 (IEC-6): 4.56 µM
IC50 (A549; 72 h): 3.1 µM
IC50 (A549; Homo sapiens, A549, 72 h): 3.06 µM
IC50 (Swiss 3t3 fibroblasts): 4.07 µM
IC50 (MCF-10A; Homo sapiens, MCF-10A): 4.43 µM
Mean tumor selectivity [1]: 1.4
